Laboratory results reported in publication PMC7708446, “^18F-meta-fluorobenzylguanidine (^18F-mFBG) to monitor changes in norepinephrine transporter expression in response to therapeutic intervention in neuroblastoma models” (Scientific Reports, 2020).
Each block holds one compound with its values, some of them ahead of it.

Tests used:
Kelly cells = experiment: Cell viability (CellTiter-Glo) after 72 h AZD2014, Kelly; assay type: cell-based; details: Homo sapiens, read-out: GI50 (concentration that reduced cell viability by 50%)
Experimental: (§1) To assess the cellular response to mTORC1/2 inhibition, Kelly and SK-N-BE(2)C cell lines, both of which over-express MYCN protein (Fig. 1b), were incubated with AZD2014 (0 to 1 µM) for 72 h. […] Key substrates of AZD2014- induced mTORC1/2 inhibition were assessed by WB.
(§2) Supplementary Figure 5: NB cell viability after 72 h treatment with AZD2014 (0–1 µM) analysed by Celltiter Glo assay. Data presented as mean ± SEM, n ≥ 3 per group, performed in triplicate. Graph is generated using GraphPad Prism (v 8.4.1), https://www.graphpad.com.

SK-N-BE(2)C cells = experiment: Cell viability (CellTiter-Glo) after 72 h AZD2014, SK-N-BE(2)C; assay type: cell-based; details: Homo sapiens, read-out: GI50 (concentration that reduced cell viability by 50%)
Experimental: as §1, §2

NET-1 [1] = experiment: Radiotracer cell uptake after AZD2014 pre-treatment, Kelly cells; assay type: cell-based, human; details: for increase of ^18F-mFBG uptake: vs untreated control
Experimental: (§3) To investigate potential changes in NET-1 function following an AZD2014-induced increase in protein expression, ^18F-mFBG and ^123I-mIBG cell uptake assays were performed in Kelly and SK-N-BE(2)C cells incubated with the drug (0–500 nM) for 24 and 72 h. […] Perhaps due to the already high expression of NET-1, increase in radiotracer uptake was less evident in SK-N-BE(2)C cells (39 ± 9% and 62 ± 5%, respectively). […].
(§4) To test the response of cell uptake using the mTOR1/2 inhibitor AZD2014 (0–500 nM) (vistusertib, Stratech Scientific, Ely, UK), a stock solution of the drug (10 mM) in dimethyl sulfoxide (DMSO, Sigma Aldrich, Gillingham, UK) was initially prepared and then diluted in culture medium to a final DMSO concentration of < 0.1%. Radiotracer uptake was assessed in cells 24 and 72 h after incubation with AZD2014. The uptake was normalised to cell viability as performed using the CellTiter-Glo assay (Promega, Southampton, UK). The data are expressed as the average of n = 3 independent experiments (performed in triplicate) ± SEM.

NET-1 [2] = target: T1, NET-1 (Homo sapiens, UniProt P23975); experiment: Radiotracer cell uptake after AZD2014 pre-treatment, SK-N-BE(2)C cells; assay type: cell-based; details: for increase of ^18F-mFBG uptake: vs untreated control
T1 construct: SK-N-SH, SK-N-BE(2)C, Kelly, NBLS human NB cell lines; endogenous in cells; host or cells: SK-N-SH, SK-N-BE(2)C, Kelly, NBLS human neuroblastoma cell lines
T1 sequence (P23975 whole entry): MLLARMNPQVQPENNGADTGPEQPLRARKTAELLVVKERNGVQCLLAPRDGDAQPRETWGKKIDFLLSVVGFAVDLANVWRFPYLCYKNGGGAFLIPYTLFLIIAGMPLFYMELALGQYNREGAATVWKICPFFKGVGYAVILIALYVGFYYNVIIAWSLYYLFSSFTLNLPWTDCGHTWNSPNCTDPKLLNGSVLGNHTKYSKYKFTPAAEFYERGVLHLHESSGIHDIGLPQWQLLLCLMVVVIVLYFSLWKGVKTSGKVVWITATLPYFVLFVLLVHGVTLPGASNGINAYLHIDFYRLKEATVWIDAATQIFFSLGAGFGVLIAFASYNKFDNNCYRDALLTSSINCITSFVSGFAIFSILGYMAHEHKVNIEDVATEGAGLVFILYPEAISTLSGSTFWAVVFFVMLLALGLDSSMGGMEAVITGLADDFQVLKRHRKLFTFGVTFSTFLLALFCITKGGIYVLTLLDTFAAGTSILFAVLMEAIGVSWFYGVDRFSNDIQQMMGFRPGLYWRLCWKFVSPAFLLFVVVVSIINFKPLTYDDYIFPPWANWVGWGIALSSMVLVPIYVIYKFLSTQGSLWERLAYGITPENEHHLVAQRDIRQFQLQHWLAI
Experimental: as §3, §4

mTORC1/2 [3] = experiment: Western blot of mTORC1/2 substrates in Kelly and SK-N-BE(2)C cells; assay type: cell-based, human
Experimental: (§5) Western blotting (WB) was performed as previously described. Antibodies were obtained from Cell Signalling Technologies (London, UK) unless stated otherwise: GAPDH, beta-actin, p-Akt^S473, Akt, p-4EBP1^T37/46, p-S6^S240/244, S6, N-MYC (Merck Millipore, Watford, UK), NET-1 (mAbTechnologies, Stone Mountain, Georgia), anti-rabbit HRP, anti-mouse HRP. Blots were visualised with SuperSignal West Pico and Femto Chemiluminescent Substrate (Thermo Fisher Scientific, Loughborough, UK) and ChemiDoc XRS + System (BioRad, Watford, UK). Data were processed and band density analysed with ImageJ and Image Lab 6.0 (BioRad, Watford, UK).

NET-1 [4] = experiment: Western blot of total NET-1 protein in SK-N-BE(2)C cells after AZD2014; assay type: cell-based, human; details: seen at 24 h, maintained at 72 h
Experimental: Given the potential role of Akt in NET-1 protein synthesis and surface expression, we further looked at NET-1 protein levels following AZD2014 treatment. […] In Kelly cells, the WB analysis was not sensitive enough to detect and accurately quantify the inherently low expression of the target protein.
as §5

Kelly xenografts = experiment: AZD2014 treatment of Kelly xenograft mice (body weight, tumour growth); assay type: in vivo; details: 25 mg/kg/day
Experimental: All studies were conducted in compliance with licenses issued under the UK Animals (Scientific Procedures) Act 1986 and approved by the Institute of Cancer Research Animal Welfare and Ethical Review Body (AWERB) according to the United Kingdom National Cancer Research Institute Guidelines for Animal Welfare in Cancer Research (project license PCC916B22, Animals in Science Regulation Unit, Home Office Science, London, UK)[65]. […]; 20–22 g) obtained from an in-house breeding colony were used in the studies. Animals were housed in a temperature-controlled facility with 12 h on–12 h off light cycle and provided water and laboratory rodent food ad libitum. Subcutaneous xenografts were generated by injection of either Kelly (5 × 10^6/0.1 mL PBS/Matrigel 30% v/v; BD Matrigel Matrix, BD Bioscience, San Jose, California, US) or SK-N-BE(2)C (1 × 10^6/0.1 mL PBS/Matrigel) into the lower flank. For the treatment studies, AZD2014 stock solution in DMSO was diluted in PEG400 to a final concentration of 2 mg/mL (10% DMSO maximum). When tumours reached ~ 100 mm^3 (calliper measurements using formula: Volume = (Width(2) × Length)/2), mice were treated daily, for a total of either 1, 3 or 7 days, by oral gavage with AZD2014 (20 or 25 mg/kg/day) or vehicle control. Mice were monitored daily for body weight or other adverse effects.

mTORC1/2 [5] = experiment: Ex vivo IHC/Western blot of mTOR signalling in treated tumours; set-up: species or system mice; details: Kelly xenografts 25 mg/kg/day, 3 days
Experimental: as §5
Formalin-fixed (10% v/v) paraffin-embedded tumours were sectioned to a thickness of 5 µm. Tumour sections underwent heat-induced epitope retrieval with a citric acid based antigen unmasking solution (H3300, Vector Laboratories, Peterborough, UK). The primary NET-1 antibody (AMT-002, Alomone Labs, Jerusalem, Israel), p-S6^S240/244 and p-4EBP1^T37/46 were added and incubated overnight at 4 °C. Endogenous peroxidases were blocked (2% H2O2 in methanol, 10 min, RT) before incubation with a secondary HRP-conjugated antibody. For chromogen development, slides were processed using a diaminobenzidine (DAB)-peroxidase substrate kit (4 min, Immpact DAB, SK-4105, Vector Laboratories, Peterborough, UK). […]

NET-1 [6] = experiment: Ex vivo Western blot of NET-1 in tumour lysates of treated animals; set-up: species or system mice
Experimental: as §5

NET-1 [7] = target: T1, NET-1; experiment: ^18F-mFBG / ^123I-mIBG uptake in NB cell lines with and without desipramine; assay type: cell-based; details: 1 h at 37 °C, rank among Kelly, SK-N-SH, NBLS
From the text: Figure 1 (a) Simplified radiosynthesis scheme of ^18F-mFBG by copper-mediated deborylation. (b) Total NET-1 protein expression in selected NB cell lines determined by Western blot. Full length blots are presented in Supplementary Figure WB1. […] Data are presented as mean ± SEM, n ≥ 2 per group, performed in triplicate. Graphs are generated using GraphPad Prism (v 8.4.1), https://www.graphpad.com.
For each cell line the cell-associated radioactivity was normalised to the number of cells and then each group was presented as a percentage of the signal acquired for SK-N-BE(2)C cells (mean of n = 3 independent experiments performed in triplicate ± SEM).

[8] = Biodistribution and PET statements pooled over Kelly and SK-N-BE(2)C xenograft-bearing mice; assay type: in vivo; details: ^123I-mIBG 24 h p.i.
Experimental: When the tumours reached approximately 100–200 mm^3, mice were anaesthetised with an isoflurane/O2 mixture (1.5–2.0% v/v) and intravenously injected with either ^18F-mFBG (~ 7.5 MBq) or ^123I-mIBG (~ 20 MBq). Mice were then imaged using an Albira PET/SPECT/CT scanner (Bruker, Coventry, UK). […] Acquisition, reconstruction and image analysis were performed as described previously. Following the final scan, the mice were sacrificed and the major organs were excised, weighed and their associated radioactivity was measured using a γ-counter. Biodistribution and image quantification were expressed as a percentage of injected dose per gram of tissue (%ID/g), whereby 1 cm^3 on PET acquisitions were assumed to equal 1 g (n ≥ 3 mice ± SD).

NB tumours = tested on: NB tumours; set-up: method as in PMID 15490487, PMID 3181182, PMID 22700000; details: NB patients; cited from earlier work
[9] = Kelly and SK-N-BE(2)C, Western blot

- GI50 (SK-N-BE(2)C cells): 307 nM
- increase of ^18F-mFBG uptake (NET-1 [2]; 200 nM AZD2014, 72 h): 39 ± 9%
- increase of ^18F-mFBG uptake (NET-1 [2]; 500 nM AZD2014, 72 h): 62 ± 5%
- ^123I-mIBG and ^18F-mFBG uptake (NET-1 [2]; AZD2014 0–500 nM, 24 h): concentration-dependent increase
Compound: CNC(=O)c1cccc(-c2ccc3c(N4CCOC[C@@H]4C)nc(N4CCOC[C@@H]4C)nc3n2)c1 [AZD2014]
- GI50 (Kelly cells): 476 nM
- increase of ^18F-mFBG uptake (NET-1 [1]; 200 nM AZD2014, 72 h): 128 ± 23%
- increase of ^18F-mFBG uptake (NET-1 [1]; 500 nM AZD2014, 72 h): 292 ± 27%
- ^123I-mIBG and ^18F-mFBG uptake (NET-1 [1]; AZD2014 0–500 nM, 24 h): concentration-dependent increase
- MYCN protein expression (mTORC1/2 [3]; [9]): not robustly reduced
- phosphorylation of S6 and 4EBP1 (mTORC1/2 [3]; [9]): concentration dependent decrease
- p-Akt^S473 inhibition (mTORC1/2 [3]; both cell lines, after 72 h incubation): not sustained
- p-Akt^S473 (mTORC1/2 [3]; both cell lines, early time points (3–12 h)): concentration-dependent downregulation
- total NET-1 protein expression (NET-1 [4]): prominent and persistent increase
- body weight lost compared to the vehicle control (Kelly xenografts; oral gavage, 3 days post-treatment initiation): ~ 10%
- tumour growth (Kelly xenografts; Kelly xenografts, n = 3, p < 0.0001): impeded
- mTORC1/2 inhibition in vivo (p-S6^S240/244, p-4EBP1^T37/46 IHC) (mTORC1/2 [5]): failed to inhibit
- NET-1 expression in tumour lysates, control vs treated (NET-1 [6]; Kelly, 25 mg/kg/day 3 days, p = 0.84, n = 2): no difference
- NET-1 expression in tumour lysates (NET-1 [6]; SK-N-BE(2)C, 20 mg/kg/day 3 days, not significant (p = 0.07, n = 4)): increase

- cell-associated radioactivity, SK-N-BE(2)C (NET-1 [7]): greatest uptake
- cell-associated radioactivity, Kelly (NET-1 [7]; SK-N-BE(2)C): least uptake
- Tumour-to-background ratios compared with ^18F-mFBG [8]: greater
Compound: NC(N)=NCc1cccc(I)c1 [^123I-mIBG, meta-iodobenzylguanidine, reference compound]

Compound: N=C(N)NCc1cccc([131I])c1 [^131I-mIBG, meta-iodobenzylguanidine]
- clinical response (NB tumours): 0 to 57%
